Assay results as given in US11884675B2, “Heterocyclic compounds as triggering receptor expressed on myeloid cells 2 agonists and methods of use” (AMGEN INC., priority 2020, dated 2024).

Molecular target: hTREM2 (Homo sapiens, UniProt Q9NZC2)
Assay: TREM2 agonist potency by Syk phosphorylation (AlphaLisa) in HEK293T-hTREM2 cells, used for Examples 306-429
Type: cell-based
Set-up: expressed in transfected cells; host or cells: HEK293T (HEK293T-hTREM2 cells)
Conditions: HEK293 Cells
Outline: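 HEK293T cells expressing human TREM2 and DAP12, plated 20-24 h before, were exposed to compounds for 45 min at room temperature, then lysed. Phospho-Syk read by AlphaLisa; % activation from a standard curve and EC50 from a four-parameter log(agonist) fit.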

hTREM2, sequence (Q9NZC2 19-230): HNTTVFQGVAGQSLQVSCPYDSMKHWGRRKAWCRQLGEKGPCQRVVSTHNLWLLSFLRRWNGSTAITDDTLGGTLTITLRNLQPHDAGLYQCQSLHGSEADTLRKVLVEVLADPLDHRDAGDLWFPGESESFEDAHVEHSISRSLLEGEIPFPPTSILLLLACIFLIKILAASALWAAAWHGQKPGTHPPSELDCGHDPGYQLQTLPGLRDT
hTREM2, sequence (O43914 22-113 partner): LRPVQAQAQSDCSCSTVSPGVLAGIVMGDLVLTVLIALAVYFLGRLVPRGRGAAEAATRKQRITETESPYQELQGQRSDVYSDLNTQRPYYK

EC50, 50 to 500 nM:
COc1cc([C@@H]2CN(c3nc(-c4ccc(Cl)cc4F)c4nc(C)c(C)nc4n3)CCO2)ccn1 [Example 336, (R)-4-(4-(4-chloro-2-fluorophenyl)-6,7-dimethylpteridin-2-yl)-2-(2-methoxypyridin-4-yl)morpholine]
Cc1cc([C@@H]2C[C@H](c3nc(-c4ccc(Cl)c(F)c4F)c4nc(C)c(C)nc4n3)CCO2)ccn1 [Example 396, 4-(4-chloro-2,3-difluorophenyl)-6,7-dimethyl-2-((2S,4R)-2-(2-methylpyridin-4-yl)tetrahydro-2H-pyran-4-yl)pteridine]
Cc1cnc2c(C34CC(C(F)(F)F)(C3)C4)nc(N3C[C@@H](C)O[C@@H](c4cnn(C5CC5)c4)C3)cc2n1 (racemic) [Example 377, 2-(1-cyclopropylpyrazol-4-yl)-6-methyl-4-[2-methyl-5-[3-(trifluoromethyl)-1-bicyclo[1.1.1]pentanyl]pyrido[3,4-b]pyrazin-7-yl]morpholine]
Cc1cc([C@@H]2CN(c3nc(C45CC(C(F)(F)F)(C4)C5)c4ncc(C)nc4n3)CCO2)ccn1 [Example 353, (R)-4-(7-methyl-4-(3-(trifluoromethyl)bicyclo[1.1.1]pentan-1-yl)pteridin-2-yl)-2-(2-methylpyridin-4-yl)morpholine]
Cc1cc([C@H]2C[C@H](c3cc4nc(C)c(C)nc4c(-c4ccc(C(F)(F)F)nc4)n3)CCO2)ccn1 (racemic) [Example 306]
Cc1cnc2c(-c3ccc(C(F)(F)F)nc3)nc(N3CCOC(c4cnn(C5CC5)c4)C3)cc2n1 (centres unmarked) [Example 340, 2-(1-cyclopropyl-1H-pyrazol-4-yl)-4-(2-methyl-5-(6-(trifluoromethyl)pyridin-3-yl)pyrido[3,4-b]pyrazin-7-yl)morpholine]
Cc1cc(C2CN(c3cc4nc(C)cnc4c(-c4ccc(C(F)(F)F)nc4)n3)CCO2)ccn1 (centres unmarked) [Example 311, 4-(2-methyl-5-(6-(trifluoromethyl)pyridin-3-yl)pyrido[3,4-b]pyrazin-7-yl)-2-(2-methylpyridin-4-yl)morpholine]
Cc1nc2nc([C@@H]3CCO[C@@H](c4cnn(C5CC5)c4)C3)nc(C34CC(C(F)(F)F)(C3)C4)c2nc1C (stereo in doubt) [Example 365, 2-(2-(1-cyclopropyl-1H-pyrazol-4-yl)tetrahydro-2H-pyran-4-yl)-6,7-dimethyl-4-(3-(trifluoromethyl)bicyclo[1.1.1]pentan-1-yl)pteridine]

EC50, ≤ 50 nM:
Cc1cc([C@H]2CN(c3nc(-c4ccc(Cl)c(F)c4F)c4nc(C)c(C)nc4n3)CCO2)ccn1 [Example 363, (S)-4-(4-(4-chloro-2,3-difluorophenyl)-6,7-dimethylpteridin-2-yl)-2-(2-methylpyridin-4-yl)morpholine]
Cc1nc2nc(N3C[C@H](C)O[C@@H](c4cnn(C5CC5)c4)C3)nc(C34CC(C(F)(F)F)(C3)C4)c2nc1C [Example 408, (2S,6S)-2-(1-cyclopropyl-1H-pyrazol-4-yl)-4-(6,7-dimethyl-4-(3-(trifluoromethyl)bicyclo[1.1.1]pentan-1-yl)pteridin-2-yl)-6-methylmorpholine]
Cc1cc(C2CN(c3cc4nc(C)c(C)cc4c(-c4ccc(C(F)(F)F)nc4)n3)CCO2)ccn1 (centres unmarked) [Example 347, 4-(2,3-dimethyl-5-(6-(trifluoromethyl)pyridin-3-yl)-1,6-naphthyridin-7-yl)-2-(2-methylpyridin-4-yl)morpholine]
Cc1nc2nc([C@H]3CCO[C@@H](c4cnn(C5CC5)c4)C3)nc(C34CC(C(F)(F)F)(C3)C4)c2nc1C (stereo in doubt) [Example 366, 2-(2-(1-cyclopropyl-1H-pyrazol-4-yl)tetrahydro-2H-pyran-4-yl)-6,7-dimethyl-4-(3-(trifluoromethyl)bicyclo[1.1.1]pentan-1-yl)pteridine]
Cc1nc2nc([C@H]3CCO[C@@H](c4cnn(C5CC5)c4)C3)nc(-c3ccc(C(F)(F)F)cc3F)c2nc1C [Example 413, 2-((2R,4S)-2-(1-cyclopropyl-1H-pyrazol-4-yl)tetrahydro-2H-pyran-4-yl)-4-(2-fluoro-4-(trifluoromethyl)phenyl)-6,7-dimethylpteridine]
Cc1cnc2c(C34CC(C(F)(F)F)(C3)C4)nc([C@H]3CCO[C@@H](c4cnn(C5CC5)c4)C3)nc2n1 [Example 407, 2-((2R,4S)-2-(1-cyclopropyl-1H-pyrazol-4-yl)tetrahydro-2H-pyran-4-yl)-7-methyl-4-(3-(trifluoromethyl)bicyclo[1.1.1]pentan-1-yl)pteridine]
Cc1nc2cc(N3CCO[C@@H](c4cnn(C5CC5)c4)C3)nc(-c3ccc(C(F)(F)F)nc3)c2nc1C [Example 384, (2S)-2-(1-cyclopropylpyrazol-4-yl)-4-[2,3-dimethyl-5-[6-(trifluoromethyl)-3-pyridyl]pyrido[3,4-b]pyrazin-7-yl]morpholine]
Cc1cc([C@H]2C[C@@H](c3cc4nc(C)c(C)cc4c(-c4ccc(F)cc4F)n3)CCO2)ccn1 (racemic) [Example 399, 5-(2,4-difluorophenyl)-2,3-dimethyl-7-[2-(2-methyl-4-pyridyl)tetrahydropyran-4-yl]-1,6-naphthyridine]
Cc1cc(C2CN(c3nc(-c4cc(F)c(Cl)cc4F)c4nc(C)c(C)nc4n3)CCO2)ccn1 (centres unmarked) [Example 352, 4-(4-(4-chloro-2,5-difluorophenyl)-6,7-dimethylpteridin-2-yl)-2-(2-methylpyridin-4-yl)morpholine]
Cc1cc(C2CN(c3cc4nc(C)c(C)cc4c(-c4ccc(Cl)cc4F)n3)CCO2)ccn1 (centres unmarked) [Example 344, 4-(5-(4-chloro-2-fluorophenyl)-2,3-dimethyl-1,6-naphthyridin-7-yl)-2-(2-methylpyridin-4-yl)morpholine]
Cc1cc(C2CN(c3cc4nc(C)c(C)nc4c(-c4ccc(F)cc4F)n3)CCO2)ccn1 (centres unmarked) [Example 315, 4-(5-(2,4-difluorophenyl)-2,3-dimethylpyrido[3,4-b]pyrazin-7-yl)-2-(2-methylpyridin-4-yl)morpholine]
COc1cc([C@H]2CN(c3nc(-c4ccc(Cl)cc4F)c4nc(C)c(C)nc4n3)CCO2)ccn1 [Example 335, (S)-4-(4-(4-chloro-2-fluorophenyl)-6,7-dimethylpteridin-2-yl)-2-(2-methoxypyridin-4-yl)morpholine]
Cc1nc2cc(N3CCOC(c4cnn(C5CC5)c4)C3)nc(-c3ccc(Cl)cc3F)c2nc1C (centres unmarked) [Example 348, 4-(5-(4-chloro-2-fluorophenyl)-2,3-dimethylpyrido[3,4-b]pyrazin-7-yl)-2-(1-cyclopropyl-1H-pyrazol-4-yl)morpholine]
Cc1cc(C2CN(c3cc4nc(C)c(C)nc4c(-c4ccc(C(F)(F)F)nc4)n3)CCO2)ccn1 (centres unmarked) [Example 312, 4-(2,3-dimethyl-5-(6-(trifluoromethyl)pyridin-3-yl)pyrido[3,4-b]pyrazin-7-yl)-2-(2-methylpyridin-4-yl)morpholine]

EC50, 500 to 3000 nM:
Cc1ccc2c(C(C)C)nc([C@H]3C[C@@H](C)O[C@@H](c4cnn(C5CC5)c4)C3)nc2n1 [Example 429, 2-((2R,4S,6R)-2-(1-cyclopropyl-1H-pyrazol-4-yl)-6-methyltetrahydro-2H-pyran-4-yl)-4-isopropyl-7-methylpyrido[2,3-d]pyrimidine]
